Results reported in ChEMBL document CHEMBL6071182, “Design, Biological Characterization, and Discovery of Novel Cyclohexenyl Derivatives as Kinesin KIF18A Inhibitors for the Treatment of Ovarian Cancer” (ACS Med Chem Lett, 2024).
Converted amounts (≈) assume the structure as drawn.

How the values were obtained:
[1] = Half life in Cynomolgus monkey at 2 mg/kg, po and 1 mg/kg, iv; assay type: ADME, organism-based, Macaca fascicularis; details: in vivo
[2] = Cmax in Balb/c mouse at 30 mg/kg, po; assay type: ADME, organism-based; details: in vivo
[3] = Cmax in ICR mouse at 2 mg/kg, po and 1 mg/kg, iv; assay type: ADME, organism-based; details: in vivo
[4] = Cmax in Cynomolgus monkey at 2 mg/kg, po and 1 mg/kg, iv; assay type: ADME, organism-based, Macaca fascicularis; details: in vivo
[5] = Half life in monkey liver microsomes; assay type: ADME, Macaca mulatta, Microsome; details: rhesus monkey
[6] = Toxicity in nude Balc/c mouse xenografted with human OVCAR-3 cells assessed as change in body weight at 10 to 30 mg/kg, po measured after 21 days; assay type: organism-based; details: in vivo, 504 h, dose 10-30 mg/kg, time 21 day
[7] = Permeability of compound across basolateral to apical side in human Caco-2 cells; assay type: ADME, cell-based; details: read-out: permeability
[8] = Cmax in Sprague-Dawley rat at 2 mg/kg, po and 1 mg/kg, iv; assay type: ADME, organism-based; details: in vivo
[9] = Cmax in Balb/c mouse at 10 mg/kg, po; assay type: ADME, organism-based; details: in vivo
[10] = Solubility in compound in FassGF; assay type: physicochemical
[11] = Plasma protein binding in mouse; assay type: ADME, cell-free; details: read-out: PPB (converted)
[12] = Oral bioavailability in ICR mouse at 2 mg/kg; assay type: ADME, organism-based; details: in vivo
[13] = AUClast in Sprague-Dawley rat at 2 mg/kg, po and 1 mg/kg, iv; assay type: ADME, organism-based; details: in vivo
NUGC-3 = test: Antiproliferative activity against human NUGC-3 cells assessed as chemiluminescence measured after 4 days incubation by Celltiter Glo assay; details: NUGC-3, 96 h
[14] = Half life in Balb/c mouse at 30 mg/kg, po; assay type: ADME, organism-based; details: in vivo
[15] = AUC in ICR mouse at 2 mg/kg, po and 1 mg/kg, iv; assay type: ADME, organism-based; details: in vivo
[16] = Cmax in Beagle dog at 2 mg/kg, po and 1 mg/kg, iv; assay type: ADME, organism-based, Canis lupus familiaris; details: in vivo
[17] = Oral bioavailability in Beagle dog at 2 mg/kg; assay type: ADME, organism-based, Canis lupus familiaris; details: in vivo
[18] = Permeability of compound across apical to basolateral side in human Caco-2 cells; assay type: ADME, cell-based; details: read-out: permeability
[19] = Solubility in compound in FassIF; assay type: physicochemical
[20] = molecular target: Voltage-gated inwardly rectifying potassium channel KCNH2 (Homo sapiens, UniProt Q12809); test: Inhibition of hERG; assay type: toxicity
OVCAR-3 [21] = test: In vivo antiproliferative activity against human OVCAR-3 cells xenografted in po dosed nude Balc/c mouse tumor model assessed as reduction in tumor volume measured after 21 days; assay type: functional, organism-based; details: dose 10-20 mg/kg, time 21.0 day, TDE = time-dependent effect
[22] = Half life in Balb/c mouse at 10 mg/kg, po; assay type: ADME, organism-based; details: in vivo
HCC1954 = test: Antiproliferative activity against human HCC1954 cells assessed as chemiluminescence measured after 4 days incubation by Celltiter Glo assay; details: HCC1954, 96 h
[23] = Half life in Beagle dog at 2 mg/kg, po and 1 mg/kg, iv; assay type: ADME, organism-based, Canis lupus familiaris; details: in vivo
[24] = AUC in Balb/c mouse at 30 mg/kg, po; assay type: ADME, organism-based; details: in vivo
[25] = Oral bioavailability in Cynomolgus monkey at 2 mg/kg; assay type: ADME, organism-based, Macaca fascicularis; details: in vivo
[26] = Solubility in compound in FessIF; assay type: physicochemical
[27] = Half life in ICR mouse at 2 mg/kg, po and 1 mg/kg, iv; assay type: ADME, organism-based; details: in vivo
[28] = AUC in Cynomolgus monkey at 2 mg/kg, po and 1 mg/kg, iv; assay type: ADME, organism-based, Macaca fascicularis; details: in vivo
OVCAR-3 [29] = test: In vivo antiproliferative activity against human OVCAR-3 cells xenografted in nude Balc/c mouse tumor model assessed as tumor growth inhibition at 30 mg/kg, po measured after 21 days; assay type: functional; details: OVCAR-3, 504 h, time 21 day, read-out: TGI
BXPC-3 = test: Antiproliferative activity against human BxPC-3 cells assessed as chemiluminescence measured after 4 days incubation by Celltiter Glo assay; details: BXPC-3, 96 h
cells = details: Homo sapiens, OVCAR-3, 96 h
Description: Antiproliferative activity against KIF18A siRNA sensitive human OVCAR-3 cells assessed as decrease in nuclei number measured after 4 days incubation by Hoechst 33342 DNA dye based nuclear count assay (NCA)

[30] = Plasma protein binding in rat; assay type: ADME, cell-free; details: read-out: PPB (converted)
NCI-N87 = test: Antiproliferative activity against human NCI-N87 cells assessed as chemiluminescence measured after 4 days incubation by Celltiter Glo assay; details: NCI-N87, 96 h
[31] = AUC in Beagle dog at 2 mg/kg, po and 1 mg/kg, iv; assay type: ADME, organism-based, Canis lupus familiaris; details: in vivo
[32] = AUC in Balb/c mouse at 10 mg/kg, po; assay type: ADME, organism-based; details: in vivo
[33] = Half life in mouse liver microsomes; assay type: ADME, Microsome
Cytochrome P450 3A4 [34] = molecular target: T1, Cytochrome P450 3A4 (Homo sapiens, UniProt P08684); test: Inhibition of CYP3A4 (unknown origin) assessed as reduction in midazolam metabolism; assay type: ADME
[35] = Plasma protein binding in human; assay type: ADME, cell-free; details: read-out: PPB (converted)
[36] = Plasma protein binding in monkey; assay type: ADME, cell-free, Macaca mulatta; details: rhesus monkey, read-out: PPB (converted)
[37] = Half life in human liver microsomes; assay type: ADME, Microsome
[38] = Oral bioavailability in Sprague-Dawley rat at 2 mg/kg; assay type: ADME, organism-based; details: in vivo
[39] = Half life in Sprague-Dawley rat at 2 mg/kg, po and 1 mg/kg, iv; assay type: ADME, organism-based; details: in vivo
Cytochrome P450 3A4 [40] = molecular target: T1, Cytochrome P450 3A4; test: Inhibition of CYP3A4 (unknown origin) assessed as reduction in testosterone metabolism; assay type: ADME
[41] = Half life in dog liver microsomes; assay type: ADME, Canis lupus familiaris, Microsome
[42] = Plasma protein binding in dog; assay type: ADME, cell-free, Canis lupus familiaris; details: read-out: PPB (converted)
[43] = Half life in rat liver microsomes; assay type: ADME, Microsome

T1 sequence (P08684 whole entry): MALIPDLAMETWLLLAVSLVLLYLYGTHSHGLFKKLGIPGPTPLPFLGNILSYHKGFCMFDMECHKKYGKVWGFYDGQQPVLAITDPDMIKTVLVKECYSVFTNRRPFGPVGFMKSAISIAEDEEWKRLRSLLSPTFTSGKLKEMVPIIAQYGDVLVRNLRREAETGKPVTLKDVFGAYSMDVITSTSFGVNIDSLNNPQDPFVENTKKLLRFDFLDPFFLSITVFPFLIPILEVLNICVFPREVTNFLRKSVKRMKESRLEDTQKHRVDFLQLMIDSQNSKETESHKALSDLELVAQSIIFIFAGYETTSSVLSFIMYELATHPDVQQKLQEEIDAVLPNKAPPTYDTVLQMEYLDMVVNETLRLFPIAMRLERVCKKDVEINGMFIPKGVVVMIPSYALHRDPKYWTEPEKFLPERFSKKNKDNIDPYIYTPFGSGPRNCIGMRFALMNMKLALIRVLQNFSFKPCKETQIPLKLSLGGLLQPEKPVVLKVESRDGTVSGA
Sequence of Voltage-gated inwardly rectifying potassium channel KCNH2 (Q12809 whole entry): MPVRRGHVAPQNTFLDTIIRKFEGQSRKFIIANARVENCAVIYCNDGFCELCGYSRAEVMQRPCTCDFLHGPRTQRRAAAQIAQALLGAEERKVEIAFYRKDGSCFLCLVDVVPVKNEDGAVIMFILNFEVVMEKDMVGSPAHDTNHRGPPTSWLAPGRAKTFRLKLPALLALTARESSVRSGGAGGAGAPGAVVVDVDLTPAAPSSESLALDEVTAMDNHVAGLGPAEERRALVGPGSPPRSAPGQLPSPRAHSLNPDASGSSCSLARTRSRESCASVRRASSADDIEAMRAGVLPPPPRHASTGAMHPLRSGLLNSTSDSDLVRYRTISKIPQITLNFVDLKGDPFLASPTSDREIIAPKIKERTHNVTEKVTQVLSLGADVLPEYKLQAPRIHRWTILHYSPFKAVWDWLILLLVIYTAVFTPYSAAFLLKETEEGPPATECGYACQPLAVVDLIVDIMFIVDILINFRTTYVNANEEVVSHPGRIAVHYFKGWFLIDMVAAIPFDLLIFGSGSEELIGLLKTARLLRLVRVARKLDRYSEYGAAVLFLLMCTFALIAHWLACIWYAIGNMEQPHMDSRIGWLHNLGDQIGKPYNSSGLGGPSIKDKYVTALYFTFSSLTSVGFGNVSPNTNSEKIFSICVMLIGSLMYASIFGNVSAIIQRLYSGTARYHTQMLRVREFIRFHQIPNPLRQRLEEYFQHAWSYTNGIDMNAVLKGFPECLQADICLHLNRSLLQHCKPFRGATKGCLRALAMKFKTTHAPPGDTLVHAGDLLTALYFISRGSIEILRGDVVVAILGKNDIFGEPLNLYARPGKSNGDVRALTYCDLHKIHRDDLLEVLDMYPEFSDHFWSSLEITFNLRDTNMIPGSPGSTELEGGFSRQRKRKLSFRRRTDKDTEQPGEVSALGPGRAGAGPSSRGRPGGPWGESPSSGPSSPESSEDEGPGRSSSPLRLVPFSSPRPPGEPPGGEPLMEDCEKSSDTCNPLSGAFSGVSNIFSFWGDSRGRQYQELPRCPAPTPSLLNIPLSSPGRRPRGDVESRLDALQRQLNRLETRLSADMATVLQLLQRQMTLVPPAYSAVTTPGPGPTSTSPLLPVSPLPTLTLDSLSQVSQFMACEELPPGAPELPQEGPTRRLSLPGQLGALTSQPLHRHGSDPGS

half-life [1]: 4.5 h
Cmax [2]: 4040 ng/mL
Cmax [3]: 393 ng/mL
Cmax [4]: 478 ng/mL
half-life [5]: 0.203 h
Papp B→A [7]: 0.49 ×10⁻⁶ cm/s
Cmax [8]: 552 ng/mL
Cmax [9]: 2160 ng/mL
solubility [10]: 3.3 µM (≈ 1.85 µg/mL)
fraction unbound [11]: 0.0011
bioavailability [12]: 68.2%
AUC(0-t) [13]: 5840 ng·h/mL
half-life [14]: 6.38 h
AUC [15]: 3340 ng·h/mL
Cmax [16]: 1150 ng/mL
bioavailability [17]: 76.9%
Papp A→B [18]: < 0.01 ×10⁻⁶ cm/s
solubility [19]: 18.5 µM (≈ 10.4 µg/mL)
half-life [22]: 3.38 h
IC50 (HCC1954): 0.014 µM
half-life [23]: 7.6 h
AUC [24]: 54400 ng·h/mL
bioavailability [25]: 40.2%
solubility [26]: 43.6 µM (≈ 24.4 µg/mL)
half-life [27]: 4.6 h
AUC [28]: 2850 ng·h/mL
IC50 (BXPC-3): 8.61 µM
EC50 (cells): 0.0647 µM
fraction unbound [30]: 0.0023
AUC [31]: 11500 ng·h/mL
AUC [32]: 27700 ng·h/mL
half-life [33]: 1.47 h
IC50 (Cytochrome P450 3A4 [34]): 22.4 µM
fraction unbound [35]: 0.0004
fraction unbound [36]: 0.0008
half-life [37]: 0.38 h
bioavailability [38]: 73%
half-life [39]: 2.7 h
IC50 (Cytochrome P450 3A4 [40]): 23 µM
half-life [41]: 2.21 h
fraction unbound [42]: 0.0007
half-life [43]: 1.03 h
SMILES: Cc1cc(NC(=O)c2ccc(NS(=O)(=O)CCO)cc2C2=CCC3(CC2)CC3)nc(N2CCC(F)(F)CC2)c1
Activity [6]: Non-Toxic
IC50 (NUGC-3): 0.016 µM
IC50 [20]: > 30 µM
Activity (OVCAR-3 [21]): Tde
inhibition in vivo at 30 mg/kg (OVCAR-3 [29]): 113%
IC50 (NCI-N87): 8.61 µM
